Results: the supplement of paper PMC8092582
± gives the standard deviation of the averaged measurements.

Tested on: HeLa
Assay: cell viability (CellTiter-Glo) relative to median of lowest-dilution wells of all drugs (fraction); higher = more viable cells
Description: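 HeLa control and CRISPR DDX11 knockout cells were seeded in 384-well plates and incubated for 72 h with each of 64 […] drugs at six concentrations. Viability was read with CellTiter-Glo and normalised to the median of the lowest (6th) dilution wells of all drugs. Two biological replicates (BR1, BR2) are averaged; the concentration unit is not stated.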

[1] = drug concentration (unit not stated): 0.04, genotype: DDX11 knockout
[2] = drug concentration (unit not stated): 0.04, genotype: control (DDX11 wild type)
[3] = drug concentration (unit not stated): 0.12, genotype: DDX11 knockout
[4] = drug concentration (unit not stated): 0.12, genotype: control (DDX11 wild type)
[5] = drug concentration (unit not stated): 0.37, genotype: DDX11 knockout
[6] = drug concentration (unit not stated): 0.37, genotype: control (DDX11 wild type)
[7] = drug concentration (unit not stated): 1.11, genotype: DDX11 knockout
[8] = drug concentration (unit not stated): 1.11, genotype: control (DDX11 wild type)
[9] = drug concentration (unit not stated): 3.33, genotype: DDX11 knockout
[10] = drug concentration (unit not stated): 3.33, genotype: control (DDX11 wild type)
[11] = drug concentration (unit not stated): 10, genotype: DDX11 knockout
[12] = drug concentration (unit not stated): 10, genotype: control (DDX11 wild type)
[13] = drug concentration (unit not stated): 0.01, genotype: DDX11 knockout
[14] = drug concentration (unit not stated): 0.01, genotype: control (DDX11 wild type)
[15] = drug concentration (unit not stated): 30, genotype: DDX11 knockout
[16] = drug concentration (unit not stated): 30, genotype: control (DDX11 wild type)

SMILES	cell viability [1]	cell viability [2]	cell viability [3]	cell viability [4]	cell viability [5]	cell viability [6]	cell viability [7]	cell viability [8]	cell viability [9]	cell viability [10]	cell viability [11]	cell viability [12]	cell viability [13]	cell viability [14]	cell viability [15]	cell viability [16]
CC(=O)Nc1cccc(-n2c(=O)n(C3CC3)c(=O)c3c(Nc4ccc(I)cc4F)n(C)c(=O)c(C)c32)c1 [Trametinib]	0.814 ± 0.081	0.908 ± 0.2	0.773 ± 0.058	0.914 ± 0.18	0.861 ± 0.12	0.976 ± 0.28	0.736 ± 0.17	0.952 ± 0.31	0.613 ± 0.23	0.968 ± 0.34	0.46 ± 0.03	0.706 ± 0.17	–	–	–	–
COc1cc([C@@H]2c3cc4c(cc3[C@@H](O[C@@H]3O[C@@H]5CO[C@@H](C)O[C@H]5[C@H](O)[C@H]3O)[C@H]3COC(=O)[C@H]23)OCO4)cc(OC)c1O [Etoposide (VP-16)]	0.993 ± 0.062	0.992 ± 0.036	0.913 ± 0.1	0.985 ± 0.015	0.737 ± 0.18	0.978 ± 0.18	0.477 ± 0.24	0.842 ± 0.39	0.165 ± 0.14	0.35 ± 0.33	0.0411 ± 0.033	0.0423 ± 0.033	–	–	–	–
C[C@@H]1COCCN1c1cc(C2([S@](C)(=N)=O)CC2)nc(-c2cc[nH]c3nccc2-3)n1 [AZD6738]	1.04 ± 0.026	1.04 ± 0.022	1.03 ± 0.046	1.03 ± 0.019	0.992 ± 0.045	0.971 ± 0.022	0.862 ± 0.0099	0.957 ± 0.13	0.648 ± 0.036	0.913 ± 0.29	0.366 ± 0.094	0.55 ± 0.24	–	–	–	–
Nc1nc(Cl)nc2c1ncn2[C@@H]1O[C@H](CO)[C@@H](O)[C@@H]1F [Clofarabine]	0.967 ± 0.12	0.999 ± 0.11	0.699 ± 0.46	0.887 ± 0.6	0.177 ± 0.19	0.181 ± 0.2	0.0355 ± 0.013	0.0535 ± 0.038	–	–	–	–	1.03 ± 0.061	1.04 ± 0.013	–	–
Nc1ccn([C@@H]2O[C@H](CO)[C@@H](O)[C@@H]2O)c(=O)n1 [Cytarabine]	1 ± 0.016	1.02 ± 0.058	0.987 ± 0.12	1.02 ± 0.096	0.728 ± 0.11	0.994 ± 0.21	0.682 ± 0.14	0.907 ± 0.41	–	–	–	–	1.05 ± 0.017	1.02 ± 0.028	–	–
COc1cc2c(cc1O)CCN[C@]21CS[C@@H]2c3c(OC(C)=O)c(C)c4c(c3[C@H](COC1=O)N1[C@@H]2[C@H]2c3c(cc(C)c(OC)c3O)C[C@@H]([C@@H]1O)N2C)OCO4 [Trabectedin (Yondelis)]	1.01 ± 0.044	1 ± 0.031	1 ± 0.034	1.02 ± 0.034	0.9874 ± 0.0059	1.02 ± 0.025	0.913 ± 0.14	1.034 ± 0.0075	–	–	–	–	1.061 ± 0.0098	1.05 ± 0.0085	–	–
O=C(O)C1(C(=O)O)CCC1.[NH2-].[NH2-].[Pt+2] [Carboplatin]	–	–	0.981 ± 0.017	1.013 ± 0.0026	0.909 ± 0.031	1.03 ± 0.039	0.829 ± 0.04	1.05 ± 0.14	0.425 ± 0.056	0.904 ± 0.45	0.165 ± 0.021	0.331 ± 0.16	–	–	0.0472 ± 0.0054	0.0483 ± 0.0055
CNC(=O)c1cccc(-c2ccc3c(N4CCOC[C@@H]4C)nc(N4CCOC[C@@H]4C)nc3n2)c1 [Vistusertib (AZD2014)]	0.902 ± 0.082	0.938 ± 0.15	0.777 ± 0.13	0.973 ± 0.3	0.668 ± 0.16	0.917 ± 0.29	0.449 ± 0.081	0.637 ± 0.16	0.356 ± 0.03	0.533 ± 0.17	0.344 ± 0.048	0.436 ± 0.17	–	–	–	–
CC(C)C[C@H](NC(=O)[C@H](CCc1ccccc1)NC(=O)CN1CCOCC1)C(=O)N[C@@H](Cc1ccccc1)C(=O)N[C@@H](CC(C)C)C(=O)[C@@]1(C)CO1 [Carfilzomib]	0.512 ± 0.7	1.1 ± 0.07	0.414 ± 0.57	1.02 ± 0.14	0.0394 ± 0.035	0.385 ± 0.37	0.00988 ± 0.0031	0.0166 ± 0.0079	–	–	–	–	0.6 ± 0.63	1.11 ± 0.022	–	–
NC(=O)c1ccc(I)c([N+](=O)[O-])c1 [Iniparib (BSI-201)]	–	–	1.01 ± 0.022	0.996 ± 0.031	1.06 ± 0.0055	0.981 ± 0.077	1.03 ± 0.045	0.951 ± 0.08	0.996 ± 0.028	0.969 ± 0.12	1.02 ± 0.062	0.93 ± 0.17	–	–	0.839 ± 0.094	0.92546 ± 0.00092
C[C@@]1(CO)[C@H](O)CC[C@@]2(C)[C@H]1CC[C@H]1C[C@@H]3C[C@@]12CC[C@]3(O)CO [Aphidicolin]	1.02 ± 0.036	1.06 ± 0.031	1.06 ± 0.089	1.08 ± 0.11	0.91 ± 0.027	1.06 ± 0.24	0.58 ± 0.046	0.79 ± 0.27	0.428 ± 0.045	0.523 ± 0.16	0.182 ± 0.027	0.23 ± 0.13	–	–	–	–
O=c1[nH]c(=O)n(C2CCCO2)cc1F (stereo not given) [Ftorafur (Tegafur)]	0.985 ± 0.063	0.953 ± 0.027	1 ± 0.057	1.01 ± 0.014	1.02 ± 0.016	1.01 ± 0.026	1 ± 0.016	1.01 ± 0.028	1.013 ± 0.0085	1.03 ± 0.014	–	–	0.991 ± 0.11	0.978 ± 0.05	–	–
Nc1cc(C(F)(F)F)c(-c2cc(N3CCOCC3)nc(N3CCOCC3)n2)cn1 [Buparlisib (BKM-120)]	1.01 ± 0.023	1.01 ± 0.039	0.963 ± 0.035	0.999 ± 0.046	0.881 ± 0.18	0.92 ± 0.2	0.625 ± 0.13	0.772 ± 0.3	0.248 ± 0.08	0.247 ± 0.11	0.045 ± 0.0024	0.0382 ± 0.001	–	–	–	–
CO[C@@H](C(=O)N1Cc2[nH]nc(NC(=O)c3ccc(N4CCN(C)CC4)cc3)c2C1)c1ccccc1	0.971 ± 0.036	0.956 ± 0.032	0.877 ± 0.023	0.943 ± 0.18	0.906 ± 0.032	0.943 ± 0.13	0.744 ± 0.091	0.771 ± 0.065	0.624 ± 0.11	0.645 ± 0.046	0.466 ± 0.043	0.58 ± 0.1	–	–	–	–
CN1CC[C@H](c2c(O)cc(O)c3c(=O)cc(-c4ccccc4Cl)oc23)[C@H](O)C1 [Alvocidib (Flavopiridol)]	1.11 ± 0.067	1.09 ± 0.031	0.972 ± 0.013	1.16 ± 0.29	0.106 ± 0.023	0.172 ± 0.022	0.163 ± 0.036	0.244 ± 0.086	0.0793 ± 0.033	0.11 ± 0.0096	–	–	1.03 ± 0.079	1.02 ± 0.067	–	–
O=C(c1cc(Cc2n[nH]c(=O)c3ccccc23)ccc1F)N1CCN(C(=O)C2CC2)CC1 [Olaparib]	1.072 ± 0.0052	1.02 ± 0.032	1.02 ± 0.024	1.04 ± 0.043	0.953 ± 0.063	0.959 ± 0.036	0.954 ± 0.037	0.967 ± 0.035	0.796 ± 0.076	0.987 ± 0.011	0.677 ± 0.083	1.01 ± 0.066	–	–	–	–
CC(C)C[C@H](NC(=O)[C@H](Cc1ccccc1)NC(=O)c1cnccn1)B(O)O [Bortezomib (Velcade)]	0.215 ± 0.22	0.169 ± 0.17	0.0261 ± 0.012	0.0235 ± 0.00034	0.0196 ± 0.002	0.0189 ± 0.00099	0.0168 ± 0.0011	0.0168 ± 0.0026	0.0124 ± 0.00057	0.0137 ± 0.003	–	–	0.863 ± 0.14	0.807 ± 0.22	–	–
CCS(=O)(=O)Nc1ccc2c(c1)/C(=C(/Nc1ccc(CN3CCCCC3)cc1)c1ccccc1)C(=O)N2 [Hesperadin]	0.981 ± 0.038	0.9913 ± 0.0085	0.85 ± 0.077	0.995 ± 0.26	0.79 ± 0.011	0.966 ± 0.21	0.696 ± 0.026	0.838 ± 0.12	–	–	–	–	1.038 ± 0.0037	1.02 ± 0.011	–	–
Nc1ncn([C@@H]2O[C@H](CO)[C@@H](O)[C@H]2O)c(=O)n1 [Azacitidine]	1.03 ± 0.04	1.03 ± 0.044	1.03 ± 0.019	1.04 ± 0.0078	1.01 ± 0.046	1.05 ± 0.021	1.0191 ± 0.00066	1.05 ± 0.013	1.05 ± 0.063	1.03 ± 0.028	0.872 ± 0.12	0.89 ± 0.28	–	–	–	–
CC(=O)O[C@H]1C(=O)[C@@]2(C)[C@H]([C@H](OC(=O)c3ccccc3)[C@]3(O)C[C@H](OC(=O)[C@H](O)[C@@H](NC(=O)c4ccccc4)c4ccccc4)C(C)=C1C3(C)C)[C@]1(OC(C)=O)CO[C@@H]1C[C@@H]2O [Paclitaxel (Taxol)]	0.26 ± 0.017	0.379 ± 0.11	0.203 ± 0.0074	0.148 ± 0.021	0.2001 ± 0.00037	0.169 ± 0.016	0.197 ± 0.031	0.2 ± 0.042	0.179 ± 0.033	0.139 ± 0.0065	–	–	0.44 ± 0.12	0.515 ± 0.11	–	–
